Laboratory results taken from patent US5908787A, “Total protein detection method” (Bayer Corporation, priority 1997, dated 1999).

Tests used:
[1] = pKa of secondary dye; assay type: physicochemical; details: second pKa of the dye
Source text: Structure A represents the general structure of phenolsulfonephthalein derivatives in protic solvents such as water or an alcohol while structure B represents the form that predominates in the dry state or in aprotic solvents such as ethers and acetonitrile. The phenolsulfonephthalein error indicators are pH indicators which include an ionizable proton having a pKa value such that the proton is displaced by the presence of protein. The pKa value of a phenolsulfonephthalein indicator is the pH at which one half of the number of indicator molecules include the deprotonated C ring phenolic hydroxyl group. In the case of the phenolsulfonephthalein protein error indicators illustrated above, two deprotonation events occur in order to cause an observable color change. The first deprotonation removes the proton from the aryl sulfonic acid on the A ring to yield the ion illustrated below as formula C: [drawing 2]
The pKa of this proton is less than one, resulting in the ionization of this moiety at all useful pH values. This ionizable group is also responsible for the aqueous solubility of these compounds. The second deprotonation involves the release of a proton from the C ring phenolic hydroxyl to yield the dianion. With this type of protein error indicator, the second deprotonization causes the observable color change which is indicative of the presence of protein in the sample being tested. The phenolsulfonephthalein protein error indicator is typically applied to an absorbent matrix material along with a buffer to provide an environment of constant pH, so that one can rely on the color change being the result of the presence of protein rather than the result of a pH change upon contact with the test fluid.

[2] = tested on: protein; test: Ka, affinity of secondary dye for protein; assay type: binding
Source text: The phenolsulfonephthalein protein error indicators are used in conjunction with the molybdate or tungstate salt assay for protein in which a fluid test sample is combined with a molybdate or tungstate salt and a dye which forms a complex therewith whose absorption band is shifted in the presence of protein. As is disclosed in U.S. Pat. No. 5,399,498; tungstate reacts with the indicator to form a complex whose color shifts in the presence of protein in a manner similar to that of molybdenum. This patent also discloses the use of phytic acid or derivatives thereof to reduce background interference in this sort of assay. […] This method is a total protein assay since the response is not dependent on the type of protein present in the test sample. […] Since total protein assays are useful in the detection of certain disease states, and the higher the total protein spillover into urine the more serious the potential problem, a total protein assay which provides a detectable response at high protein concentrations is desirable.

O=[N+]([O-])c1cc(C2(c3cc(I)c(O)c([N+](=O)[O-])c3)OS(=O)(=O)c3c(Br)c(Br)c(Br)c(Br)c32)cc(I)c1O [Secondary dye 5, 5',5"-Dinitro-3',3"-Diiodo-3,4,5,6-Tetrabromophenolsulfonephthalein]
pKa [1]: 1.5 | affinity for protein (in words) [2]: too high an affinity for proteins

O=S1(=O)OC(c2cc(Cl)c(O)c(Br)c2)(c2cc(Cl)c(O)c(Br)c2)c2ccccc21 [Secondary dye 3, Bromochlorophenol blue]
pKa [1]: 3.8

O=[N+]([O-])c1cc(C2(c3cc(Br)c(O)c([N+](=O)[O-])c3)OS(=O)(=O)c3c(Br)c(Br)c(Br)c(Br)c32)cc(Br)c1O [Secondary dye 6, 5',5"-Dinitro-3',3",3,4,5,6-hexabromophenolsulfonephthalein]
pKa [1]: 1.6

O=S1(=O)OC(c2cc(Br)c(O)c(Br)c2)(c2cc(Br)c(O)c(Br)c2)c2ccccc21 [Secondary dye 1, Bromophenol blue]
pKa [1]: 3.7

O=S1(=O)OC(c2cc(I)c(O)c(I)c2)(c2cc(I)c(O)c(I)c2)c2ccccc21 [Secondary dye 4, Tetraiodophenolsulfonephthalein]
pKa [1]: 4.0

O=[N+]([O-])c1cc(C2(c3cc(Br)c(O)c(I)c3)OS(=O)(=O)c3c(Br)c(Br)c(Br)c(Br)c32)cc(Br)c1O (centres unmarked) [Secondary dye 7, 5'-Nitro-5''-Iodo-3',3"3,4,5,6-hexabromophenolsulfonephthalein]
pKa [1]: 1.6

O=S1(=O)OC(c2cc(Br)c(O)c(Br)c2)(c2cc(Br)c(O)c(Br)c2)c2c(Br)c(Br)c(Br)c(Br)c21 [Secondary dye 2, Tetrabromophenol blue]
pKa [1]: 3.5
